From patent US12344610B2, “APOL1 inhibitors and methods of use” (Maze Therapeutics, Inc., priority 2022, dated 2025)
pEC50: −log10 of the molar value.

The molecules below were run on HEK293 clonal cell line overexpressing APOL1 G1 (assay: APOL1 G1 HEK293 cell rescue assay (Example B3)). Details: HEK293 clonal line overexpressing APOL1 G1; geometric mean of at least 2 runs; † = single run; ¥ = concentration at 50% rescue estimated (no sigmoidal curve).
Assay type: cell-based
Summary of the method: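 Rescue of cell death caused by APOL1 G1 overexpression was measured in a clonal HEK293 line. Compounds were tested in duplicate on one plate, and EC50s were geometric means across at least two runs on different days. Some values are estimated 50%-rescue concentrations where curve fitting failed.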

SMILES | pEC50
CC(c1ncc(OCCN2CCC3(CC2)C(=O)Nc2ccc(Cl)cc23)cn1)S(C)(=O)=O (single isomer, unassigned) [Compound 3, 5-chloro-1′-[2-({2-[(1R) or (1S)-1-methanesulfonylethyl]pyrimidin-5-yl}oxy)ethyl]-1,2-dihydrospiro[indole-3,4′-piperidin]-2-one] | 6.59
CC(O)c1ncc(OCCN2CCC3(CC2)C(=O)Nc2ccc(C#N)cc23)cc1C(F)(F)F (single isomer, unassigned) [Compound 377, 1′-[2-({6-(1S) or (1R)-1-hydroxyethyl]-5-(trifluoromethyl)pyridin-3-yl}oxy)ethyl]-2-oxo-1,2-dihydrospiro[indole-3,4′-piperidine]-5-carbonitrile] | 6.76
CS(=O)(=O)C1(c2ccc(OCCN3CCC4(CC3)C(=O)Nc3ccc(Cl)cc34)cc2)CC(O)C1 (stereo not drawn) [Compound 269, 5-chloro-1′-(2-{4-[(cis) or (trans)-3-hydroxy-1-methanesulfonylcyclobutyl]phenoxy}ethyl)-1,2-dihydrospiro[indole-3,4′-piperidin]-2-one] | 6.49
CS(=O)(=O)C1(c2ccc(OCCN3CCC4(CC3)C(=O)Nc3ccc(Cl)cc34)cc2)CC(O)C1 (stereo not drawn) [Compound 270, 5-chloro-1′-(2-{4-[(trans) or (cis)-3-hydroxy-1-methanesulfonylcyclobutyl]phenoxy}ethyl)-1,2-dihydrospiro[indole-3,4′-piperidin]-2-one] | 7.22

Same assay, conditions: Homo sapiens, HEK293, HEK293 clonal line overexpressing APOL1 G1; geometric mean of at least 2 runs; † = single run; ¥ = concentration at 50% rescue estimated (no sigmoidal curve)

SMILES | pEC50
CC(c1ncc(OCCN2CCC3(CC2)C(=O)Nc2ccc(Cl)cc23)cn1)S(C)(=O)=O (single isomer, unassigned) [Compound 2, 5-chloro-1′-[2-({2-[(1S) or (1R)-1-methanesulfonylethyl]pyrimidin-5-yl}oxy)ethyl]-1,2-dihydrospiro[indole-3,4′-piperidin]-2-one] | 6.46
CC(O)c1ncc(OCCN2CCC3(CC2)C(=O)Nc2ccc(C#N)cc23)cc1C(F)(F)F (single isomer, unassigned) [Compound 376, 1′-[2-({6-[(1S) or (1R)-1-hydroxyethyl]-5-(trifluoromethyl)pyridin-3-yl}oxy)ethyl]-2-oxo-1,2-dihydrospiro[indole-3,4′-piperidine]-5-carbonitrile] | 6.89
CS(=O)(=O)C1(c2ncc(OCCN3CCC4(CC3)C(=O)Nc3ccc(C(F)F)cc34)cn2)CC1 [Compound 5, 5-(difluoromethyl)-1′-(2-{[2-(1-methanesulfonylcyclopropyl)pyrimidin-5-yl]oxy}ethyl)-1,2-dihydrospiro[indole-3,4′-piperidin]-2-one] | 6.53
CS(=O)(=O)C1(c2ncc(OCCN3CCC4(CC3)C(=O)Nc3ccc(OC(F)F)cc34)cn2)CC1 [Compound 6, 5-(difluoromethoxy)-1′-(2-{[2-(1-methanesulfonylcyclopropyl)pyrimidin-5-yl]oxy}ethyl)-1,2-dihydrospiro[indole-3,4′-piperidin]-2-one] | 6.60
O=C1CCc2cc(OCCN3CCC4(CC3)C(=O)Nc3ccc(Cl)cc34)cnc2N1[C@H]1C[C@H](O)C1 [Compound 267, 5-chloro-1′-[2-({7-oxo-8-[(trans)-3-hydroxycyclobutyl]-5,6,7,8-tetrahydro-1,8-naphthyridin-3-yl}oxy)ethyl]-1,2-dihydrospiro[indole-3,4′-piperidin]-2-one] | 6.86
C[C@]1(O)C[C@@H](n2c(=O)cnc3cc(OCCN4CCC5(CC4)C(=O)Nc4ccc(Cl)cc45)cnc32)C1 [Compound 358, 5-chloro-1′-[2-({3-oxo-4-[(cis)-3-hydroxy-3-methylcyclobutyl]-3H,4H-pyrido[2,3-b]pyrazin-7-yl}oxy)ethyl]-1,2-dihydrospiro[indole-3,4′-piperidin]-2-one] | 6.95
CC1(O)CN(c2ncc(OCCN3CCC4(CC3)C(=O)Nc3ccc(C(F)F)cc34)cn2)C1 [Compound 395, 5-(difluoromethyl)-1′-(2-{[2-(3-hydroxy-3-methylazetidin-1-yl)pyrimidin-5-yl]oxy}ethyl)-1,2-dihydrospiro[indole-3,4′-piperidin]-2-one] | 6.80
